Assays:
Experiment in all cases: relative viability (nuclei count vs DMSO), 5 days (fraction); higher = more cells survive
A-427 = system: A-427
How it was run: (§1)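 Five library-drug doses in √10 steps were combined with a fixed anchor-drug dose, or a single drug was given alone, by pin tool to lung cancer cell lines in 1536-well plates the day after seeding. Nuclei were stained and counted after 5 days. Relative viability is the nuclei count in treated wells over that in vehicle wells, taken as the median of duplicate plates.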

HCC-15 = system: HCC-15
How it was run: as §1

HOP-62 = system: HOP-62
How it was run: as §1

LC-2-ad = system: LC-2-ad
How it was run: as §1

LOU-NH91 = system: LOU-NH91
How it was run: as §1

LXF-289 = system: LXF-289
How it was run: as §1

NCI-H1734 = system: NCI-H1734
How it was run: as §1

NCI-H1755 = system: NCI-H1755
How it was run: as §1

NCI-H1792 = system: NCI-H1792
How it was run: as §1

NCI-H1915 = system: NCI-H1915
How it was run: as §1

NCI-H1975 = system: NCI-H1975
How it was run: as §1

NCI-H2126 = system: NCI-H2126
How it was run: as §1

NCI-H2228 = system: NCI-H2228
How it was run: as §1

NCI-H2342 = system: NCI-H2342
How it was run: as §1

NCI-H2347 = system: NCI-H2347
How it was run: as §1

NCI-H358 = system: NCI-H358
How it was run: as §1

NCI-H460 = system: NCI-H460
How it was run: as §1

NCI-H647 = system: NCI-H647
How it was run: as §1

PC-3 [JPC-3] = system: PC-3 [JPC-3]
How it was run: as §1

RERF-LC-KJ = system: RERF-LC-KJ
How it was run: as §1

SK-LU-1 = system: SK-LU-1
How it was run: as §1

SW 1573 = system: SW 1573
How it was run: as §1

Oc1nc(-c2ccc(C(F)(F)F)cc2)nc2c1CSCC2 [XAV939] + CCNC(=O)c1noc(-c2cc(C(C)C)c(O)cc2O)c1-c1ccc(CN2CCOCC2)cc1 [Luminespib] (partner 0.01 µM)
relative viability (A-427; first compound 0.08 µM): 1.15 | relative viability (A-427; first compound 0.253 µM): 0.978 | relative viability (A-427; first compound 0.8 µM): 0.753 | relative viability (A-427; first compound 2.53 µM): 0.782 | relative viability (HCC-15; first compound 0.08 µM): 0.465 | relative viability (HCC-15; first compound 0.253 µM): 0.295 | relative viability (HCC-15; first compound 0.8 µM): 0.302 | relative viability (HCC-15; first compound 2.53 µM): 0.235 | relative viability (HOP-62; first compound 0.08 µM): 1.01 | relative viability (HOP-62; first compound 0.253 µM): 0.869 | relative viability (HOP-62; first compound 0.8 µM): 1 | relative viability (HOP-62; first compound 2.53 µM): 0.74 | relative viability (LC-2-ad; first compound 0.08 µM): 1.2 | relative viability (LC-2-ad; first compound 0.253 µM): 0.938 | relative viability (LC-2-ad; first compound 0.8 µM): 0.973 | relative viability (LC-2-ad; first compound 2.53 µM): 0.853 | relative viability (LOU-NH91; first compound 0.08 µM): 0.322 | relative viability (LOU-NH91; first compound 0.253 µM): 0.337 | relative viability (LOU-NH91; first compound 0.8 µM): 0.432 | relative viability (LOU-NH91; first compound 2.53 µM): 0.295 | relative viability (LXF-289; first compound 0.08 µM): 0.727 | relative viability (LXF-289; first compound 0.253 µM): 0.681 | relative viability (LXF-289; first compound 0.8 µM): 0.778 | relative viability (LXF-289; first compound 2.53 µM): 0.729 | relative viability (NCI-H1734; first compound 0.08 µM): 0.223 | relative viability (NCI-H1734; first compound 0.253 µM): 0.216 | relative viability (NCI-H1734; first compound 0.8 µM): 0.185 | relative viability (NCI-H1734; first compound 2.53 µM): 0.162 | relative viability (NCI-H1755; first compound 0.08 µM): 0.522 | relative viability (NCI-H1755; first compound 0.253 µM): 0.457 | relative viability (NCI-H1755; first compound 0.8 µM): 0.361 | relative viability (NCI-H1755; first compound 2.53 µM): 0.488 | relative viability (NCI-H1792; first compound 0.08 µM): 0.419 | relative viability (NCI-H1792; first compound 0.253 µM): 0.391 | relative viability (NCI-H1792; first compound 0.8 µM): 0.466 | relative viability (NCI-H1792; first compound 2.53 µM): 0.464 | relative viability (NCI-H1915; first compound 0.08 µM): 1.11 | relative viability (NCI-H1915; first compound 0.253 µM): 0.449 | relative viability (NCI-H1915; first compound 0.8 µM): 0.849 | relative viability (NCI-H1915; first compound 2.53 µM): 0.741 | relative viability (NCI-H1975; first compound 0.08 µM): 0.217 | relative viability (NCI-H1975; first compound 0.253 µM): 0.246 | relative viability (NCI-H1975; first compound 0.8 µM): 0.204 | relative viability (NCI-H1975; first compound 2.53 µM): 0.139 | relative viability (NCI-H2126; first compound 0.08 µM): 0.985 | relative viability (NCI-H2126; first compound 0.253 µM): 0.843 | relative viability (NCI-H2126; first compound 0.8 µM): 0.869 | relative viability (NCI-H2126; first compound 2.53 µM): 0.733 | relative viability (NCI-H2228; first compound 0.08 µM): 0.156 | relative viability (NCI-H2228; first compound 0.253 µM): 0.158 | relative viability (NCI-H2228; first compound 0.8 µM): 0.152 | relative viability (NCI-H2228; first compound 2.53 µM): 0.134 | relative viability (NCI-H2342; first compound 0.08 µM): 0.645 | relative viability (NCI-H2342; first compound 0.253 µM): 0.601 | relative viability (NCI-H2342; first compound 0.8 µM): 0.546 | relative viability (NCI-H2342; first compound 2.53 µM): 0.402 | relative viability (NCI-H2347; first compound 0.08 µM): 0.419 | relative viability (NCI-H2347; first compound 2.53 µM): 0.248 | relative viability (NCI-H358; first compound 0.08 µM): 0.289 | relative viability (NCI-H358; first compound 0.253 µM): 0.32 | relative viability (NCI-H358; first compound 0.8 µM): 0.293 | relative viability (NCI-H358; first compound 2.53 µM): 0.412 | relative viability (NCI-H460; first compound 0.08 µM): 0.0319 | relative viability (NCI-H460; first compound 0.253 µM): 0.0395 | relative viability (NCI-H460; first compound 0.8 µM): 0.0405 | relative viability (NCI-H460; first compound 2.53 µM): 0.0235 | relative viability (NCI-H647; first compound 0.08 µM): 0.252 | relative viability (NCI-H647; first compound 0.253 µM): 0.173 | relative viability (NCI-H647; first compound 0.8 µM): 0.156 | relative viability (NCI-H647; first compound 2.53 µM): 0.143 | relative viability (PC-3 [JPC-3]; first compound 0.08 µM): 0.829 | relative viability (PC-3 [JPC-3]; first compound 0.253 µM): 0.647 | relative viability (PC-3 [JPC-3]; first compound 0.8 µM): 0.68 | relative viability (PC-3 [JPC-3]; first compound 2.53 µM): 0.635 | relative viability (RERF-LC-KJ; first compound 0.08 µM): 1.21 | relative viability (RERF-LC-KJ; first compound 0.253 µM): 1.06 | relative viability (RERF-LC-KJ; first compound 0.8 µM): 1.07 | relative viability (RERF-LC-KJ; first compound 2.53 µM): 0.844 | relative viability (SK-LU-1; first compound 0.08 µM): 0.201 | relative viability (SK-LU-1; first compound 0.253 µM): 0.193 | relative viability (SK-LU-1; first compound 0.8 µM): 0.207 | relative viability (SK-LU-1; first compound 2.53 µM): 0.246 | relative viability (SW 1573; first compound 0.08 µM): 0.691 | relative viability (SW 1573; first compound 0.253 µM): 0.249 | relative viability (SW 1573; first compound 0.8 µM): 0.136 | relative viability (SW 1573; first compound 2.53 µM): 0.226

From the supplement of paper PMC10307832
